Laboratory results as given in US20200016130A1, “Methods of Diagnosing and Treating Small Cell Lung Cancer Using Polo-Like Kinase 1 (PLK1) Inhibitors” (Emory University, priority 2017, published 2020).
Entries after “also recorded” stand apart in the source; their conditions may differ. Like-named read-outs stand apart in the source and are kept apart here.

Legend:
[1] = tested on: TKO-005 PDX of platinum sensitive SCLC; test: Patient derived xenograft (PDX) model of platinum sensitive SCLC (TKO-005); type: in vivo
Excerpt: PDX models generated from SCLC patients enrolled in a recently completed translational phase II clinical trial of arsenic trioxide were employed. […] The activity of rigosertib was compared to that of cisplatin (expected to be active in a PDX from a platinum sensitive tumor) and arsenic trioxide (expected to have no efficacy based on the clinical trial outcome for the patient whose tumor biopsy was used to generate the PDX).

H292 NSCLC cell line = test: In vitro cytotoxicity before and after shRNA knockdown of TP53 in H292; type: cell-based; conditions: compared to parental and vector-treated controls
Experimental: (§1) Whether depletion of endogenous wild type P53 and enforced expression of active P53 mutant would alter cancer cell line sensitivity to PLK1 inhibitor was evaluated. Due to low transfection efficiency in SCLC cell lines, established NSCLC cell line models were relied on to interrogate PLK1 activity following TP53 gene modulation. In vitro cytotoxicity of PLK1 inhibitors were compared before and after shRNA knockdown of TP53 in H292 and A549. In these cell lines with wild type TP53, there was increased sensitivity to PLK1 inhibitors following shRNA knockdown in comparison to parent cells and vector treated controls (FIG. 4). We also evaluated PLK1 inhibitor activity in p53−/− H1299 cells following enforced expression of active mutant forms of TP53. There was reduced sensitivity of the mutant-bearing cell lines compared to parental p53−/− cells (FIG. 5).

A549 NSCLC cell line = test: In vitro cytotoxicity before and after shRNA knockdown of TP53 in A549; type: cell-based; conditions: compared to parental and vector-treated controls
Experimental: as §1

[2] = tested on: panel of SCLC cell lines (DMS53, DMS114, DMS153, H146, H209, H69, H128, H187, H526); test: Agnostic cytotoxicity screening of targeted agents in panel of SCLC cell lines (MTS assay); conditions: for IC50 concentration / activity against SCLC cell lines (in words) / In vitro activity versus a priori threshold (submicromolar in vitro cytotoxicity): panel of SCLC cell lines; for In vitro activity versus a priori threshold (submicromolar in vitro cytotoxicity): MTS assay
Experimental: (§2) An agnostic screening approach was employed by evaluating in vitro cytotoxicity of biologically targeted agents that have not been previously evaluated in SCLC clinical trials. […] The cytotoxicity of 10 different targeted agents was determined in a panel of genomically annotated SCLC cell lines by low throughput MTS assay. Inhibitors of the bromodomain, HSP90, CDK2, MEK, PIK3CA and PLK1 were tested in a panel of SCLC cell lines (DMS53, DMS114, DMS153, H146, H209, H69, H128, H187, H526) well characterized for genetic alterations and expression profiles.

DMS53 SCLC cell line = test: In vitro cytotoxicity, low throughput MTS assay, DMS53; type: cell-based; conditions: Homo sapiens, DMS-53, TP53 c.722C > T, read-out: IC50 (nM), cell line sensitivity to volasertib
Experimental: as §2

DMS153 SCLC cell line = test: In vitro cytotoxicity, low throughput MTS assay, DMS153; type: cell-based; conditions: Homo sapiens, DMS-153, TP53 c.463A > C, read-out: IC50 (nM), cell line sensitivity to volasertib
Experimental: as §2

H146 SCLC cell line = test: In vitro cytotoxicity, low throughput MTS assay, H146; type: cell-based; conditions: Homo sapiens, NCI-H146, TP53 wild type, read-out: IC50 (nM), cell line sensitivity to volasertib
Experimental: as §2

H209 SCLC cell line = test: In vitro cytotoxicity, low throughput MTS assay, H209; type: cell-based; conditions: Homo sapiens, NCI-H209, TP53 c.673-2A > T, read-out: IC50 (nM), cell line sensitivity to volasertib
Experimental: (§3) The cytotoxicity of 10 different targeted agents was determined in a panel of genomically annotated SCLC cell lines by low throughput MTS assay. Inhibitors of the bromodomain, HSP90, CDK2, MEK, PIK3CA and PLK1 were tested in a panel of SCLC cell lines (DMS53, DMS114, DMS153, H146, H209, H69, H128, H187, H526) well characterized for genetic alterations and expression profiles.

H69 SCLC cell line = test: In vitro cytotoxicity, low throughput MTS assay, H69; type: cell-based; conditions: TP53 c.511G > T, concurrent hemizygous deletion, read-out: IC50 (nM), cell line sensitivity to volasertib
Experimental: as §3

H187 SCLC cell line = test: In vitro cytotoxicity, low throughput MTS assay, H187; type: cell-based
Experimental: as §2

DMS114 SCLC cell line = test: In vitro cytotoxicity, low throughput MTS assay, DMS114; type: cell-based; conditions: Homo sapiens, DMS-114, TP53 c.637C > T, concurrent hemizygous deletion, read-out: IC50 (nM), cell line sensitivity to volasertib
Experimental: as §3

[3] = tested on: H526 SCLC cell line xenograft; test: Subcutaneous xenograft model of H526 SCLC cell line; type: in vivo, athymic (nu/nu) mice; conditions: volasertib 30 mg/kg i.p. weekly; p<0.003
Experimental: To establish whether the promising in vitro activity of these PLK1 inhibitors translates into antitumor efficacy in vivo. The activity of PLK1 inhibitors were compared to that of approved drugs currently employed in the management of SCLC. The in vivo efficacy of volasertib (30 mg/kg i.p. weekly), cisplatin (3 mg/kg i.p. weekly) and irinotecan (25 mg/kg i.p. weekly) was tested, using a subcutaneous xenograft model of the H526 cell line, the most sensitive cell line from our in vitro screen (FIG. 2). Tumor xenografts were established in 6-week old athymic (nu/nu) mice using H526 cells (1-2×10^7) suspended in serum-free medium mixed with Matrigel™ solution and injected subcutaneously into the flank region of nude mice. Treatment began in groups of tumor-bearing mice (approximately 6 mice per group) matched for body weight and tumor volume when the tumors achieved a volume of approximately 100 mm^3.

[4] = tested on: panel of SCLC cell lines (DMS53, DMS114, DMS153, H146, H209, H69, H128, H187, H526)
Experimental: as §2

Compound | Tumor growth inhibition compared to vehicle [1] | Sensitivity to PLK1 inhibitor after shRNA knockdown of TP53 (H292 NSCLC cell line) | Sensitivity to PLK1 inhibitor after shRNA knockdown of TP53 (A549 NSCLC cell line) | IC50 concentration / activity against SCLC cell lines (in words) [2] | In vitro activity versus a priori threshold (submicromolar in vitro cytotoxicity) [2] | In vitro activity versus a priori threshold (submicromolar in vitro cytotoxicity) [4] | other results
COc1cc(OC)c(/C=C/S(=O)(=O)Cc2ccc(OC)c(NCC(=O)O)c2)c(OC)c1 [rigosertib] | significant tumor growth inhibition comparable to cisplatin | sensitized | sensitized | picomolar IC50 concentration; also recorded: low nanomolar to picomolar activity | met the a priori threshold of activity |  | Tumor weight compared to vehicle [1]: reduced tumor weight
N.N.[Cl][Pt][Cl] [cisplatin] | comparable efficacy |  |  |  |  |  | 
CC[C@@H]1C(=O)N(C)c2cnc(Nc3ccc(C(=O)N[C@H]4CC[C@H](N5CCN(CC6CC6)CC5)CC4)cc3OC)nc2N1C(C)C [volasertib] |  | sensitized | sensitized | picomolar IC50 concentration; also recorded: low nanomolar to picomolar activity | met the a priori threshold of activity |  | IC50 (DMS53 SCLC cell line): 0.118 nM; IC50 (DMS153 SCLC cell line): 0.672 nM; IC50 (H146 SCLC cell line): 0.163 nM; IC50 (H209 SCLC cell line): 0.057 nM; IC50 (H69 SCLC cell line): 0.018 nM; Surviving viable cells (H187 SCLC cell line; BI6727 concentration of 0.01 nM and higher): no surviving viable cells; IC50 (H187 SCLC cell line; Homo sapiens, NCI-H187, TP53 c.722C > G, concurrent hemizygous deletion, read-out: IC50 (nM), cell line sensitivity to volasertib): 0.004 nM; IC50 (DMS114 SCLC cell line): 0.092 nM; Tumor growth inhibition relative to control [3]: significant tumor growth inhibition; IC50 ([2]; read-out: mean IC50 concentration, less sensitive SCLC cell lines): 0.25 nM; IC50 ([2]; read-out: mean IC50 concentration, more sensitive SCLC cell lines): 0.03 nM
CCc1cnn2c(NCc3ccc[n+]([O-])c3)cc(N3CCCC[C@H]3CCO)nc12 [SCH727965] |  |  |  |  |  | met the a priori threshold of activity | 
CCNC(=O)c1noc(-c2cc(C(C)C)c(O)cc2O)c1-c1ccc(CN2CCOCC2)cc1 [AUY922] |  |  |  |  |  | met the a priori threshold of activity | 
